Like-named read-outs stand apart in the source and are kept apart here.
Target: cellular cereblon (CRBN) (Homo sapiens, UniProt Q96SW2)
Experiment: NanoBRET Target Engagement Assay, competition with pomalidomide tracer in 293T.116 cells
Details: for NanoBRET TE 293T.116 CRBN 6 hours IP nM / NanoBRET TE 293T.116 CRBN 24 hours IP nM / IC50 / NanoBRET TE 293T.116 CRBN 2 hours IP nM: 293T.116 cells
[1] = NanoBRET TE 293T.116 CRBN 6 hours IC50 nM, 6 hours incubation
[2] = NanoBRET TE 293T.116 CRBN 24 hours IC50 nM, 24 hours incubation
[3] = read-out: NanoBRET TE 293T.116 CRBN 6 hours Emax
[4] = read-out: NanoBRET TE 293T.116 CRBN 24 hours Emax
[5] = NanoBRET TE 293T.116 CRBN 2 hours IC50 nM, 2 hours incubation
[6] = read-out: NanoBRET TE 293T.116 CRBN 2 hours Emax

| SMILES | NanoBRET TE 293T.116 CRBN 6 hours IP nM (6 hours incubation) | NanoBRET TE 293T.116 CRBN 24 hours IP nM (24 hours incubation) | IC50 [1] [nM] | IC50 [2] [nM] | Emax [3] [%] | Emax [4] [%] | NanoBRET TE 293T.116 CRBN 2 hours IP nM (2 hours incubation) | IC50 [5] [nM] | Emax [6] [%] |
| --- | --- | --- | --- | --- | --- | --- | --- | --- | --- |
| O=C1CCC(Oc2ccc(S(=O)(=O)F)cn2)C(=O)N1 (stereo not drawn) [Compound A-9, 6-((2,6-dioxopiperidin-3-yl)oxy)pyridine-3-sulfonyl fluoride] | ** (<10 μM and >1 μM is **) | * (>=10 μM is *) | 1000 to 10000 | > 10000 | < 50 | 50 to 80 |  |  |  |
| Cn1nc(N2CCC(=O)NC2=O)c2cccc(S(=O)(=O)F)c21 [Compound A-10, 3-(2,4-dioxotetrahydropyrimidin-1(2H)-yl)-1-methyl-1H-indazole-7-sulfonyl fluoride] | *** (<= 1 μM is ***) | *** (<= 1 μM is ***) | < 1000 | < 1000 | < 50 | < 50 | *** (<= 1 μM is ***) | < 1000 | < 50 |
| CN(c1cccc(S(=O)(=O)F)c1)C1CCC(=O)NC1=O (stereo not drawn) [Compound A-11, 3-((2,6-dioxopiperidin-3-yl)(methyl)amino)benzenesulfonyl fluoride] | *** (<= 1 μM is ***) | *** (<= 1 μM is ***) | < 1000 | < 1000 | < 50 | < 50 | *** (<= 1 μM is ***) | < 1000 | < 50 |
| O=C1CCC(c2ccc(S(=O)(=O)F)cc2)C(=O)N1 (stereo not drawn) [Compound A-12, 4-(2,6-dioxopiperidin-3-yl)benzenesulfonyl fluoride] | *** (<= 1 μM is ***) | *** (<= 1 μM is ***) | < 1000 | 1000 to 10000 | < 50 | < 50 | *** (<= 1 μM is ***) | < 1000 | < 50 |
| O=C1CCN(c2ccc(S(=O)(=O)F)cc2)C(=O)N1 [Compound A-14, 4-(2,4-dioxotetrahydropyrimidin-1(2H)-yl)benzenesulfonyl fluoride] | ** (<10 μM and >1 μM is **) | ** (<10 μM and >1 μM is **) | 1000 to 10000 | > 10000 | < 50 | 50 to 80 | ** (<10 μM and >1 μM is **) | 1000 to 10000 | < 50 |
| O=C1CCN(c2ccc(OS(=O)(=O)F)cc2)C(=O)N1 [Compound A-15, 4-(2,4-dioxotetrahydropyrimidin-1(2H)-yl)phenyl sulfurofluoridate] | ** (<10 μM and >1 μM is **) | ** (<10 μM and >1 μM is **) | > 10000 | 1000 to 10000 | 50 to 80 | < 50 | ** (<10 μM and >1 μM is **) | > 10000 | 50 to 80 |
| COc1ccc(OC2CCC(=O)NC2=O)cc1S(=O)(=O)F (stereo not drawn) [Compound A-16, 5-[(2,6-dioxo-3-piperidyl)oxy]-2-methoxy-benzenesulfonyl fluoride] | *** (<= 1 μM is ***) | *** (<= 1 μM is ***) | < 1000 | < 1000 | < 50 | < 50 | *** (<= 1 μM is ***) | < 1000 | < 50 |
| CN(c1cccc(OS(=O)(=O)F)c1)C1CCC(=O)NC1=O (stereo not drawn) [Compound A-18, 3-((2,6-dioxopiperidin-3-yl)(methyl)amino)phenyl sulfurofluoridate] | * (>=10 μM is *) | ** (<10 μM and >1 μM is **) | 1000 to 10000 | 1000 to 10000 | < 50 | < 50 | ** (<10 μM and >1 μM is **) | 1000 to 10000 | < 50 |
| Cc1ccc(OC2CCC(=O)NC2=O)cc1OS(=O)(=O)F (stereo not drawn) [Compound A-19, 5-((2,6-dioxopiperidin-3-yl)oxy)-2-methylphenyl sulfurofluoridate] | ** (<10 μM and >1 μM is **) | ** (<10 μM and >1 μM is **) | 1000 to 10000 | 1000 to 10000 | < 50 | < 50 | ** (<10 μM and >1 μM is **) | 1000 to 10000 | < 50 |
| Cc1cc(OC2CCC(=O)NC2=O)cc(OS(=O)(=O)F)c1 (stereo not drawn) [Compound A-20, 3-((2,6-dioxopiperidin-3-yl)oxy)-5-methylphenyl sulfurofluoridate] | *** (<= 1 μM is ***) | *** (<= 1 μM is ***) | < 1000 | 1000 to 10000 | < 50 | < 50 |  |  |  |
| COc1cc(OC2CCC(=O)NC2=O)cc(OS(=O)(=O)F)c1 (stereo not drawn) [Compound A-21, 3-(3-fluorosulfonyloxy-5-methoxy-phenoxy)-2,6-dioxo-piperidine] | *** (<= 1 μM is ***) | ** (<10 μM and >1 μM is **) | < 1000 | 1000 to 10000 | < 50 | < 50 |  |  |  |
| O=C1CCC(c2cccc(OS(=O)(=O)F)c2)C(=O)N1 (stereo not drawn) [Compound A-23, 3-(2,6-dioxopiperidin-3-yl)phenyl sulfurofluoridate] | ** (<10 μM and >1 μM is **) | ** (<10 μM and >1 μM is **) | 1000 to 10000 | 1000 to 10000 | < 50 | < 50 |  |  |  |
| O=C1CCC(c2ccc(OS(=O)(=O)F)cc2)C(=O)N1 (stereo not drawn) [Compound A-25, 4-(2,6-dioxopiperidin-3-yl)phenyl sulfurofluoridate] | *** (<= 1 μM is ***) | *** (<= 1 μM is ***) | < 1000 | < 1000 | < 50 | < 50 |  |  |  |
| COc1ccc(OC2CCC(=O)NC2=O)cc1OS(=O)(=O)F (stereo not drawn) [Compound A-27, 5-((2,6-dioxopiperidin-3-yl)oxy)-2-methoxyphenyl sulfurofluoridate] | ** (<10 μM and >1 μM is **) | ** (<10 μM and >1 μM is **) | 1000 to 10000 | > 10000 | < 50 | 50 to 80 | ** (<10 μM and >1 μM is **) | 1000 to 10000 | < 50 |
| O=C1CCC(n2c(=O)oc3c(S(=O)(=O)F)cccc32)C(=O)N1 (stereo not drawn) [Compound A-29, 3-(2,6-dioxopiperidin-3-yl)-2-oxo-2,3-dihydrobenzo[d]oxazole-7-sulfonyl fluoride] | *** (<= 1 μM is ***) | ** (<10 μM and >1 μM is **) | < 1000 | 1000 to 10000 | < 50 | < 50 |  |  |  |

— patent US20260274856A1, “COVALENT CEREBLON LIGANDS” (C4 THERAPEUTICS, INC., priority 2023, published 2026)
